Test results from US20070042045A1, “Multilayer dosage form comprising a matrix that influences release of a modulatory substance” (ROEHM GBMH & CO. KG, priority 2003, published 2007).

Experiment: active ingredient delivery in PhEur phosphate buffer of pH 6.8 in a USP dissolution tester
Format: physicochemical
Details: versus pellets with microcrystalline cellulose (Example 5), EUDRAGIT RS coating, no matrix

| effect of the modulating substance in the core on active ingredient delivery | SMILES |
| --- | --- |
| accelerating effect | CC(=O)[O-].[Na+] [sodium acetate] |
| accelerating effect | O=C([O-])CCC(=O)[O-].[Na+].[Na+] [sodium succinate] |
| accelerating effect | O=C(O)CC(O)(CC(=O)O)C(=O)O [citric acid] |

| SMILES | effect of the modulating substance in the core on active ingredient delivery |
| --- | --- |
| [Cl-].[Na+] [sodium chloride] | reducing effect |
